Laboratory results taken from US20180153995A1, “USE OF ANTIMICROBIAL POLYMERS FOR RE-SENSITIZATION OF MICROORGANISMS UPON EMERGENCE OF RESISTANCE TO ANTI-MICROBIAL AGENTS” (Technion Research & Development Foundation Limited, priority 2008, published 2018).
Like-named read-outs stand apart in the source and are kept apart here.

Assays:
P. mirabilis 1285 [1] = assay type: cell-based, Proteus mirabilis
MRSA 15852 = assay type: cell-based, Staphylococcus aureus; conditions: S. aureus 15852
Protocol: The fractionary inhibitory (FIC) concentration index for combinations of two antimicrobial agents was calculated as follows: FIC index=FICA+FICB=A/MICA+B/MICB where A and B are the MIC values of agent A and agent B in the combination, MICA and MICB are the MICs of agent A and agent B alone, and FICA and FICB are the FICs of agent A and agent B.
The FIC indexes were interpreted as follows: less than 0.5 indicates a clear re-sensitizing effect; from 0.5 to 4 indicates a marginal or null re-sensitizing effect; and over 4 indicates antagonism.

S. aureus 43300 = test: Antibiotic MIC by microdilution with or without sub-MIC polymer; assay type: cell-based, Staphylococcus aureus
P. mirabilis 1285 [2] = assay type: cell-based, Proteus mirabilis; conditions: no polymer (None), Table 12
Protocol: (§1) MICs were determined by microdilution susceptibility testing in 96-well plates (by Nunc) using inocula of 10^5 bacteria per ml. Cell populations were evaluated by optical density measurements at 620 nm and were calibrated against a set of standards. Hundred (100) μl of a bacterial suspension were added to 100 μl of culture medium (control) or to 100 μl of culture medium containing various polymer concentrations in 2-fold serial dilutions. Inhibition of proliferation was determined by optical density measurements at 620 nm after an incubation period of 24 hours at 37° C.
(§2) 100 μl of a bacterial suspension were added to 100 μl of culture medium (control) or to 100 μl of culture medium containing various antibiotic and C14(9-ene)KKNC12KNH2 (SEQ ID NO: 5) concentrations in 2-fold serial dilutions. Inhibition of proliferation was determined by optical density measurements at 620 nm after an incubation period of 24 hours at 37° C.

S. aureus 15877 = test: Antibiotic MIC by microdilution with or without sub-MIC polymer; assay type: cell-based, Staphylococcus aureus
E. coli AG100/ks = test: Antibiotic MIC with or without sub-MIC polymer (Tables 20, 21); assay type: cell-based, Escherichia coli
P. aeruginosa 8732 = test: Antibiotic MIC by microdilution with or without sub-MIC polymer; assay type: cell-based, Pseudomonas aeruginosa
Protocol: as §1
Inhibition of proliferation was determined by optical density measurements at 620 nm after an incubation period of 24 hours at 37° C.

E. coli AG100 = test: Antibiotic MIC with or without sub-MIC polymer (Tables 20, 21); assay type: cell-based, Escherichia coli
E. coli 14384 = test: Antibiotic MIC by microdilution with or without sub-MIC polymer; assay type: cell-based, Escherichia coli
Protocol: as §1, §2

[3] = +¼ MIC (1.6 μM) C12K(KNC12K)2NH2
[4] = +½ MIC (3.12 μM) C12K(KNC12K)2NH2
[5] = +⅓ MIC (2.1 μM) C12K(KNC12K)2NH2
[6] = +¼ MIC (1.6 μM) C12(5-ene)KKNC12KNH2
[7] = +½ MIC (3.12 μM) C12(5-ene)KKNC12KNH2
[8] = +⅓ MIC (2.1 μM) C12(5-ene)KKNC12KNH2

With CC1(C)S[C@@H]2[C@H](NC(=O)Cc3ccccc3)C(=O)N2[C@H]1C(=O)O [Penicillin G, penicillin G] as the molecule, how does the “Antibiotic MIC” value (P. mirabilis 1285 [1]; [3]) read?
Its value is 512 µg/mL.

What about the “Antibiotic MIC” value (P. mirabilis 1285 [1]; [4]) of the same molecule?
Its value is 512 µg/mL.

And the “Antibiotic MIC” value (P. mirabilis 1285 [1]; [5])?
The value was 512 µg/mL.

And the “Antibiotic MIC” value (MRSA 15852; [6])?
Its value is 32 µg/mL.

What about the “Antibiotic MIC” value (MRSA 15852; +¼ MIC (1.6 μM) C12KKNC12KNH2) of the same molecule?
The value was 64 µg/mL.

And the “Antibiotic MIC” value (MRSA 15852; [7])?
Its value is 32 µg/mL.

And the “Antibiotic MIC” value (MRSA 15852; +½ MIC (3.12 μM) C12KKNC12KNH2)?
The value was 64 µg/mL.

And the “Antibiotic MIC” value (MRSA 15852; [8])?
The value was 32 µg/mL.

What about the “Antibiotic MIC” value (MRSA 15852; +⅓ MIC (2.1 μM) C12KKNC12KNH2) of the same molecule?
Its value is 64 µg/mL.

And the “Antibiotic MIC” value (MRSA 15852; no polymer (None), Table 8)?
Its value is 32 µg/mL.

What about the “Antibiotic MIC” value (MRSA 15852; no polymer (None), Table 11) of the same molecule?
The value was 64 µg/mL.

What about the “Antibiotic MIC” value (S. aureus 43300; [6]) of the same molecule?
Its value is 1 µg/mL.

And the “Antibiotic MIC” value (S. aureus 43300; [3])?
The value was 8 µg/mL.

And the “Antibiotic MIC” value (S. aureus 43300; +¼ MIC (1.6 μM) C12KKNC12KNH2)?
Its value is 4 µg/mL.

And the “Antibiotic MIC” value (S. aureus 43300; +¼ MIC (1.6 μM) C16(9-ene)KKNC12KNH2)?
The value was 2 µg/mL.

What about the “Antibiotic MIC” value (S. aureus 43300; [4]) of the same molecule?
Its value is 4 µg/mL.

What about the “Antibiotic MIC” value (S. aureus 43300; +½ MIC (3.12 μM) C12KKNC12KNH2) of the same molecule?
Its value is 1 µg/mL.

What about the “Antibiotic MIC” value (S. aureus 43300; +½ MIC (3.12 μM) C16(9-ene)KKNC12KNH2) of the same molecule?
The value was 0.25 µg/mL.

And the “Antibiotic MIC” value (S. aureus 43300; [8])?
Its value is 0.25 µg/mL.

And the “Antibiotic MIC” value (S. aureus 43300; [5])?
Its value is 8 µg/mL.

And the “Antibiotic MIC” value (S. aureus 43300; +⅓ MIC (2.1 μM) C12KKNC12KNH2)?
The value was 2 to 4 µg/mL.

And the “Antibiotic MIC” value (S. aureus 43300; +⅓ MIC (2.1 μM) C16(9-ene)KKNC12KNH2)?
The value was 1 to 2 µg/mL.

And the “Antibiotic MIC” value (P. mirabilis 1285 [2])?
The value was 512 µg/mL.

And the “Antibiotic MIC” value (S. aureus 15877; [6])?
The value was 8 µg/mL.

And the “Antibiotic MIC” value (S. aureus 15877; [7])?
Its value is 8 µg/mL.

And the “Antibiotic MIC” value (S. aureus 15877; [8])?
The value was 8 µg/mL.

And the “Antibiotic MIC” value (S. aureus 15877; no polymer (None), Table 8)?
The value was 8 µg/mL.

And the “Antibiotic MIC, None” value (E. coli AG100/ks; antibiotic alone (Table 20))?
The value was >512 µg/mL.

What about the “Antibiotic MIC, None” value (E. coli AG100/ks; antibiotic alone (Table 21)) of the same molecule?
Its value is >512 µg/mL.

What about the “Antibiotic MIC in presence of C12K(NC8K)5NH2 (SEQ ID NO: 3), +¼ MIC” value (E. coli AG100/ks; polymer at ¼ of its MIC) of the same molecule?
The value was >512 µg/mL.

And the “Antibiotic MIC in presence of C12K(NC8K)5NH2 (SEQ ID NO: 3), +½ MIC” value (E. coli AG100/ks; polymer at ½ of its MIC)?
Its value is >512 µg/mL.

What about the “Antibiotic MIC in presence of C12K(NC8K)5NH2 (SEQ ID NO: 3), +⅓ MIC” value (E. coli AG100/ks; polymer at ⅓ of its MIC) of the same molecule?
The value was >512 µg/mL.

What about the “Antibiotic MIC” value (P. aeruginosa 8732) of the same molecule?
Its value is 512 µg/mL.

What about the “Antibiotic MIC” value (P. aeruginosa 8732; P. aeruginosa 8732, +½ MIC (3.12 μM) C16(9-ene)KKNC12KNH2) of the same molecule?
Its value is 512 µg/mL.

And the “Antibiotic MIC” value (P. aeruginosa 8732; P. aeruginosa 8732, +⅓ MIC (2.1 μM) C16(9-ene)KKNC12KNH2)?
Its value is 512 µg/mL.

And the “Antibiotic MIC” value (P. aeruginosa 8732; P. aeruginosa 8732, no polymer (None), Table 10)?
Its value is 512 µg/mL.

What about the “Antibiotic MIC, None” value (E. coli AG100; antibiotic alone (Table 20)) of the same molecule?
The value was 32 µg/mL.

And the “Antibiotic MIC, None” value (E. coli AG100; antibiotic alone (Table 21))?
Its value is 32 µg/mL.

What about the “Antibiotic MIC in presence of C12K(NC8K)5NH2 (SEQ ID NO: 3), +¼ MIC” value (E. coli AG100; polymer at ¼ of its MIC) of the same molecule?
The value was 16 µg/mL.

What about the “Antibiotic MIC in presence of C12K(NC8K)7NH2 (SEQ ID NO: 4), +¼ MIC” value (E. coli AG100; polymer at ¼ of its MIC) of the same molecule?
The value was 16 to 32 µg/mL.

What about the “Antibiotic MIC in presence of C12K(NC8K)5NH2 (SEQ ID NO: 3), +½ MIC” value (E. coli AG100; polymer at ½ of its MIC) of the same molecule?
Its value is 8 µg/mL.

What about the “Antibiotic MIC in presence of C12K(NC8K)7NH2 (SEQ ID NO: 4), +½ MIC” value (E. coli AG100; polymer at ½ of its MIC) of the same molecule?
Its value is 8 µg/mL.

What about the “Antibiotic MIC in presence of C12K(NC8K)5NH2 (SEQ ID NO: 3), +⅓ MIC” value (E. coli AG100; polymer at ⅓ of its MIC) of the same molecule?
Its value is 16 µg/mL.

What about the “Antibiotic MIC in presence of C12K(NC8K)7NH2 (SEQ ID NO: 4), +⅓ MIC” value (E. coli AG100; polymer at ⅓ of its MIC) of the same molecule?
The value was 8 to 16 µg/mL.

And the “Antibiotic MIC” value (E. coli 14384)?
Its value is 512 µg/mL.

And the “Antibiotic MIC” value (E. coli 14384; E. coli 14384, +½ MIC C12K(NC8K)5NH2)?
The value was >512 µg/mL.

What about the “Antibiotic MIC, None” value (E. coli 14384; E. coli 14384, antibiotic alone (Table 15)) of the same molecule?
Its value is >512 µg/mL.

And the “Antibiotic MIC” value (E. coli 14384; E. coli 14384, no polymer (None), Table 9)?
The value was 512 µg/mL.

And the “Antibiotic MIC” value (E. coli 14384; E. coli 14384, no polymer (None), Table 14)?
Its value is >512 µg/mL.

What about the “Antibiotic MIC in presence of C12K(NC8K)7NH2 (SEQ ID NO: 4), +¼ MIC” value (E. coli 14384; E. coli 14384, polymer at ¼ of its MIC) of the same molecule?
The value was >512 µg/mL.

And the “Antibiotic MIC in presence of C12K(NC8K)7NH2 (SEQ ID NO: 4), +½ MIC” value (E. coli 14384; E. coli 14384, polymer at ½ of its MIC)?
The value was >512 µg/mL.

And the “Antibiotic MIC in presence of C12K(NC8K)7NH2 (SEQ ID NO: 4), +⅓ MIC” value (E. coli 14384; E. coli 14384, polymer at ⅓ of its MIC)?
The value was >512 µg/mL.
